According to patent publication US20220348571A1, “DIHYDROPYRIMIDINE DERIVATIVES AND USES THEREOF IN THE TREATMENT OF HBV INFECTION OR OF HBV-INDUCED DISEASES” (Janssen Sciences Ireland Unlimited Company, priority 2018, published 2022):
Where a name gives a salt, the structure may show the parent alone. Read-outs that look alike come from different tables or passages of the source.

How the values were obtained:
Type in all cases: cell-based
HBV = assay: Anti-viral assay in HepG2.2.15 cells: HBV inhibitory activity (HBV DNA in culture medium by q-PCR); settings: Hepatitis B virus, HepG2.2.15, 144 h
Excerpt: (§1) Example 2: Anti-Viral Assay in HepG2.2.15 Cells
(§2) 1.1. Cell line • HepG2.2.15 (the HepG2.2.15 cell line can be produced by transfection of the HepG2 cell line as described in Sells, Chen, and Acs 1987 (Proc. Natl. Acad. Sci. USA 84:1005-1009), and the HepG2 cell line is available from ATCC® under number HB-8065™).
(§3) Seed the cell HepG2.2.15 cells into 96-well plate in 2% FBS culture medium at the density of 40,000 cells/well and 5,000 cells/well for HBV inhibitory activity and cytotoxicity determination, respectively. After seeding, incubate the cell plates at 37° C., 5% CO2 overnight. The next day, medium containing compounds is added to the cell to treat the cells for 6 days with medium refreshed once in the middle of the treatment. 8 dose points with 3 folds dilution of each compound were adopted and the highest concentration of the compounds is 10 uM and 100 uM for HBV inhibitory activity and cytotoxicity determination, respectively.
The HBV DAN change in the cell culture medium induced by the compounds is measured by q-PCR method. Briefly, the HBV DNA in the culture medium is extracted using QIAamp 96 DNA Blood Kit according to the manual and then quantified by q-PCR using the primers and probe in the table below.
(§4) 2.2. DATA Analysis EC50 and CC50 values are calculated by the GRAPHPAD PRISM software.

[1] = Cytotoxicity determination in HepG2.2.15 cells (CCK-8); settings: human, 6 days treatment, CCK-8, highest concentration 100 uM
Excerpt: as §1, §2, §3
(§5) After 6 days of compounds treatment, add 20 μl CCK-8 reagents to each well of cytotoxicity assay plates, incubate the plate at 37° C., 5% CO2 for 2.5 h and measure the absorbance at 450 nm wavelength, at the same time read the absorbance at 630 nm wavelength as reference.
as §4

HepG2.2.15 cells = assay: as above; settings: 6 days treatment, CCK-8, highest concentration 100 uM
Excerpt: as §1, §2, §3, §5, §4

[2] = HepG2.2.15 cells, 6 days treatment, HBV DNA in culture medium by q-PCR, highest concentration 10 uM, read-out: EC50

SMILES | EC50 (HBV; [2]) [nM] | CC50 at 6 days [1] [µM] | EC50 (HBV) [nM] | CC50 (HepG2.2.15 cells) [µM]
CCOC(=O)C1=C([C@H]2CC[C@@H](n3nccc3C(=O)O)CC2)NC(c2nccs2)=NC1c1ccc(F)c(F)c1Cl (single isomer, unassigned) [Compound I-39-B, (cis)-1-(4-(6-(2-Chloro-3,4-difluorophenyl)-5-(ethoxycarbonyl)-2-(thiazol-2-yl)-3,6-dihydropyrimidin-4-yl)cyclohexyl)-1H-pyrazole-5-carboxylic acid] | 82 | – | – | –
COC(=O)C1=C(C2CCN(c3ncc(C)c(C(=O)O)n3)CC2)NC(c2nccs2)=NC1c1cccc(F)c1C (single isomer, unassigned) [II-5-B] | 49 | 25.8 | – | –
CCOC(=O)C1=C(C2CCN(c3nc(C)c(C(=O)O)o3)CC2)NC(c2nccs2)=NC1c1ccc(F)c(F)c1Cl (single isomer, unassigned) [II-64-B, Lithium 2-(4-(6-(2-chloro-3,4-difluorophenyl)-5-(ethoxycarbonyl)-2-(thiazol-2-yl)-3,6-dihydropyrimidin-4-yl)piperidin-1-yl)-4-methyloxazole-5-carboxylate] | – | – | 75 | 6.84
CCOC(=O)C1=C(C2CCN(c3ncc(C(=O)O)c(OC)n3)CC2)NC(c2nccs2)=NC1c1ccc(F)c(F)c1Cl (single isomer, unassigned) [II-72-B, 2-(4-(6-(2-Chloro-3,4-difluorophenyl)-5-(ethoxycarbonyl)-2-(thiazol-2-yl)-3,6-dihydropyrimidin-4-yl)piperidin-1-yl)-4-methoxypyrimidine-5-carboxylic acid] | 62 | 5.59 | – | –
CCOC(=O)C1=C(C2CCN(c3cnc(C(=O)O)s3)CC2)NC(c2nccs2)=NC1c1ccc(F)c(F)c1Cl (single isomer, unassigned) [II-76-B, 5-(4-(6-(2-Chloro-3,4-difluorophenyl)-5-(ethoxycarbonyl)-2-(thiazol-2-yl)-3,6-dihydropyrimidin-4-yl)piperidin-1-yl)thiazole-2-carboxylate lithium salt] | – | – | 90 | 6.68
CCOC(=O)Cc1coc([C@H]2CC[C@H](C3=C(C(=O)OCC)C(c4ccc(F)c(F)c4Cl)N=C(c4nccs4)N3)CC2)n1 (single isomer, unassigned) [VII-23-Y, (trans)-Ethyl 4-(2-chloro-3,4-difluorophenyl)-(4-(4-(2-ethoxy-2-oxoethyl)oxazol-2-yl)cyclohexyl)-2-(thiazol-2-yl)-1,4-dihydropyrimidine-5-carboxylate] | – | 8.18 | – | –
